Experimental data published in patent US12662465B2, “EGFR inhibitors” (Blueprint Medicines Corporation, priority 2021, dated 2026).
Where two headings read alike, the source gives them in different places.

Assays:
[1] = molecular target: T1, EGFR enzyme (Homo sapiens, UniProt P00533); experiment: Biochemical EGFR inhibition assays (Biological Example 1), enzyme form not specified; conditions: Biological Example/Assay 1; read-out: inhibitory activity
T1 construct: From knowledge only, the SignalChem E10-1xx 'G' products are GST-tagged cytoplasmic-domain constructs

[2] = system: EGFR M+ NSCLC patients; conditions: first line (1L), NSCLC harboring del19 and L858R mutations; cited from earlier work
[3] = molecular target: T2, EGFR L858R (Homo sapiens, UniProt P00533, L858R); experiment: Biochemical EGFR inhibition assay (Caliper mobility shift), EGFR L858R; conditions: read-out: Enz EGFR_L858R IC50
T2 construct: purchased SignalChem E10-122BG

[4] = molecular target: intracellular phosphorylation of EGFR (Tyr1068) in PC-9 cells (Ex19Del) (Homo sapiens, UniProt P00533, DEL746-750); experiment: PC-9 pEGFR AlphaLISA assay; type: cell-based; conditions: 4 hours compound incubation, read-out: Ext pEGFR_PC-9 Ex19Del IC50
[5] = molecular target: T3, EGFR (d746-750) (Homo sapiens, UniProt P00533, DEL746-750); experiment: Biochemical EGFR inhibition assay (Caliper mobility shift), EGFR (d746-750); conditions: read-out: Enz EGFR_Exon19-del746-750 IC50
T3 construct: purchased SignalChem E10-122JG

[6] = 1.0 mM ATP or ATP Km, room temperature (25° C.)

T3 sequence (P00533 with tags, fused parts or gaps DEL746-750 limits assumed): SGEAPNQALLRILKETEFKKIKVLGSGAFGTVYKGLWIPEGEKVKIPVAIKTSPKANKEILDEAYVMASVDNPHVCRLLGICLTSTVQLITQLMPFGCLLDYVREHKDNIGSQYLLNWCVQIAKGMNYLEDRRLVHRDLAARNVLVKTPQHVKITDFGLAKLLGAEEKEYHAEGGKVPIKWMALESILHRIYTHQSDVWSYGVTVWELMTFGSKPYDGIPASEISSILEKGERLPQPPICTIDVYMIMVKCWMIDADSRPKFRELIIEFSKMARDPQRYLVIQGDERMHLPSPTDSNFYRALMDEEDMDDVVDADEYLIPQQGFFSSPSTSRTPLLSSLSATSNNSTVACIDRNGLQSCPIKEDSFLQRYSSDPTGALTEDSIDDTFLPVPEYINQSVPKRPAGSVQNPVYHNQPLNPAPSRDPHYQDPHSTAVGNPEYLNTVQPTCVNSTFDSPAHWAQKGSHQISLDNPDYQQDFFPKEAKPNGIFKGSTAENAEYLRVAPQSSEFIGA
T2 sequence (P00533 25-1210 L858R): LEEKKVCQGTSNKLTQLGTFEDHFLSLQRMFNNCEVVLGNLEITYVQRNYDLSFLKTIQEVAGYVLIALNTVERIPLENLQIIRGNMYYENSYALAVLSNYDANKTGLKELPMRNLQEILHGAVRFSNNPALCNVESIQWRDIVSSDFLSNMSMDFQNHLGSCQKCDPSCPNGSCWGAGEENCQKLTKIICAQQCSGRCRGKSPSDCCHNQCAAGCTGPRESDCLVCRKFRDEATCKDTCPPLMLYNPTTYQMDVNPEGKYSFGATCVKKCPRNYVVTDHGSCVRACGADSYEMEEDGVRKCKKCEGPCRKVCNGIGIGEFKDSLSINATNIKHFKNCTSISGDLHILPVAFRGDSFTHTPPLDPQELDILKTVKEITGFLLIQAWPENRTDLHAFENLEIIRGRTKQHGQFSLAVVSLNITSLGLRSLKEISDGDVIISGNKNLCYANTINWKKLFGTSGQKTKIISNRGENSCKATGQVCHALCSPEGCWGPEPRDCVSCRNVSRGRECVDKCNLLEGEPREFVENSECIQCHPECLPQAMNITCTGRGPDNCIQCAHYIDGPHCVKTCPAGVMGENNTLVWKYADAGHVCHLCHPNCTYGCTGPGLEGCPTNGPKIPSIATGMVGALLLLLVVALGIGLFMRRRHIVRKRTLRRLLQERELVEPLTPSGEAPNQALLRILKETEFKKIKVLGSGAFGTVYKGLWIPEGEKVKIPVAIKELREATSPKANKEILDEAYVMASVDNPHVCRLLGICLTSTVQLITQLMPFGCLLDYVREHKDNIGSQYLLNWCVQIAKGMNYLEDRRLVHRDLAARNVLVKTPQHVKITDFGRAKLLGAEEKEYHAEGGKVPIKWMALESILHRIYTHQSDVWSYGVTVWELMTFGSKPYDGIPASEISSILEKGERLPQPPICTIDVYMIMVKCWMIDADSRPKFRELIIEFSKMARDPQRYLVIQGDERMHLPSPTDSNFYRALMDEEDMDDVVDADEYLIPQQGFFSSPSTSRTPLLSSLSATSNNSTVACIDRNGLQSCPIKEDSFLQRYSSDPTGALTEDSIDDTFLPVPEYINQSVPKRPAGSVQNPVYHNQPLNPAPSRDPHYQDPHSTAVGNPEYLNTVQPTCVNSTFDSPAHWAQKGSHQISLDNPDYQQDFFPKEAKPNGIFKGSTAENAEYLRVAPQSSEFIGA
Chain of intracellular phosphorylation of EGFR (Tyr1068) in PC-9 cells (Ex19Del) (P00533 with tags, fused parts or gaps DEL746-750): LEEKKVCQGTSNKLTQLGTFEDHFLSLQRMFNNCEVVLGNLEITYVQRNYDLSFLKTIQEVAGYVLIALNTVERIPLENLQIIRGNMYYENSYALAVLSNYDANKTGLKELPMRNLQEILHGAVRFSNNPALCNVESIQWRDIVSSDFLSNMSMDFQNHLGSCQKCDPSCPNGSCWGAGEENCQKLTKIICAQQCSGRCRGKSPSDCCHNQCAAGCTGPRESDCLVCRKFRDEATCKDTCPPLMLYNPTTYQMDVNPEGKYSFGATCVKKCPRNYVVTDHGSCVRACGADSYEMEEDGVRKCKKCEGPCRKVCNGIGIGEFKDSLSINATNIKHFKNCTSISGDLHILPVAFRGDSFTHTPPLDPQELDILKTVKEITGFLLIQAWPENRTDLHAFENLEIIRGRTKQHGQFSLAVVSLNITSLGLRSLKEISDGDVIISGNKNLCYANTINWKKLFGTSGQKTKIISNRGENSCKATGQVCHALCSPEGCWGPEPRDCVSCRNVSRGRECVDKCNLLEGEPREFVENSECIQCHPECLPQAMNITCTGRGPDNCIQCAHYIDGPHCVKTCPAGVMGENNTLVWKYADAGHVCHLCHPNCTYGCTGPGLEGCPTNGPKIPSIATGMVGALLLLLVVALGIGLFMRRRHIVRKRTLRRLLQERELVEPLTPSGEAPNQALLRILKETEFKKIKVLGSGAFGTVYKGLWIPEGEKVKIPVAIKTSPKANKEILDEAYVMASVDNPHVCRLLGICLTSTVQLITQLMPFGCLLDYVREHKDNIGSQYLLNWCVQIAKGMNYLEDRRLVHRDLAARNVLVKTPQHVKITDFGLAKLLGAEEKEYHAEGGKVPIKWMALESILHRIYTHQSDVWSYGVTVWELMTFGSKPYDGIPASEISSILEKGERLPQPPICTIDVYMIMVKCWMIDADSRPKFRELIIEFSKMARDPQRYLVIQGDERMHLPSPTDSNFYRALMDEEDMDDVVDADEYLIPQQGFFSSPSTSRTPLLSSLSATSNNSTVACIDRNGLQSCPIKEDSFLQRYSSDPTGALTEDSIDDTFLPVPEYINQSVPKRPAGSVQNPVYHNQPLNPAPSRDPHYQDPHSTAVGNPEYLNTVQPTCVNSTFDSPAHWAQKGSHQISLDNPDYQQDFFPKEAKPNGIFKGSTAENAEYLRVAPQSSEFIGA
T1 sequence (P00533 whole entry L858R, form open): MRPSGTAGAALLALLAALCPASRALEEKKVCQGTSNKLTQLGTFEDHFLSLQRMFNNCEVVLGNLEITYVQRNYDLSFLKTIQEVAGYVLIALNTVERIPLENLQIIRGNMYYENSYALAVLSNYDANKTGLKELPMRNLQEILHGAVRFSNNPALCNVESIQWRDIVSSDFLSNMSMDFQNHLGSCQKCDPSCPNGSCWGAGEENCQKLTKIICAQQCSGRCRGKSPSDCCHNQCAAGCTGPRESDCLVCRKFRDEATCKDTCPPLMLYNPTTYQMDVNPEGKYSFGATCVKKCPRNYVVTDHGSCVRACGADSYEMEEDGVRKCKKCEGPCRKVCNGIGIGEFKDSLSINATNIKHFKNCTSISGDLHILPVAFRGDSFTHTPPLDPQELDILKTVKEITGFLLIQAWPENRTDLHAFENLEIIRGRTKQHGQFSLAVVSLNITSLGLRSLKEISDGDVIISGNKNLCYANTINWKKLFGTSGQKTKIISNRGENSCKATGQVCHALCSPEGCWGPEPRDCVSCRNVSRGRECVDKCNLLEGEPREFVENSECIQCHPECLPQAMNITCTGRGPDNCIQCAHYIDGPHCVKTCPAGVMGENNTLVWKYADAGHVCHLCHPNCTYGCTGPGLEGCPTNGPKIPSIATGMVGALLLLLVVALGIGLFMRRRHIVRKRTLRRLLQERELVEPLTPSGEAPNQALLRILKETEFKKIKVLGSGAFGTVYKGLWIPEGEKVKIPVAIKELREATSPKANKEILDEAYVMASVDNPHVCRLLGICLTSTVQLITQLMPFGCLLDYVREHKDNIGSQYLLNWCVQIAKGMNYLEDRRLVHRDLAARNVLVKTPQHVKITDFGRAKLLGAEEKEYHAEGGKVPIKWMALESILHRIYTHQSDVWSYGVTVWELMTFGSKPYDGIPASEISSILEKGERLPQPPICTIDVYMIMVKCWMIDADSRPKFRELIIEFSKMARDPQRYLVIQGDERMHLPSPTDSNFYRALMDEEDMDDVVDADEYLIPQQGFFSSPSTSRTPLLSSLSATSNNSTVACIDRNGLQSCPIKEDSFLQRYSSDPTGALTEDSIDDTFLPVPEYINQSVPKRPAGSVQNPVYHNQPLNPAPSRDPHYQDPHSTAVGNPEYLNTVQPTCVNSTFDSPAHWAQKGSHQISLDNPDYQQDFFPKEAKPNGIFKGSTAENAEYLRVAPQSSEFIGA

Compound	IC50 [1] [nM]	IC50 [4] [nM]	IC50 [3] [nM]	IC50 [5] [nM]	progression-free survival (PFS) [2] [mo]	IC50 [3, 6] [nM]	IC50 [5, 6] [nM]
C=CC(=O)Nc1cc(Nc2nccc(-c3cn(C)c4ccccc34)n2)c(OC)cc1N(C)CCN(C)C [osimertinib]	–	–	–	–	18.9	–	–
C[C@H](Oc1cc(-c2cnn(C)c2)cc2ncnc(Nc3ccc4ncccc4c3F)c12)[C@@H]1CCCN1C (single isomer, unassigned) [Example 148]	–	> 50.1	–	–	–	10.1 to 50	10.1 to 50
C[C@@H](Oc1cc(-c2cnn(C)c2)cc2ncnc(Nc3ccc4ncccc4c3F)c12)C1COC1 (single isomer, unassigned) [Example 1, (R)—N-(5-fluoroquinolin-6-yl)-7-(1-methyl-1H-pyrazol-4-yl)-5-(1-(oxetan-3-yl)ethoxy)quinazolin-4-amine or (S)—N-(5-fluoroquinolin-6-yl)-7-(1-methyl-1H-pyrazol-4-yl)-5-(1-(oxetan-3-yl)ethoxy)quinazolin-4-amine]	–	≤ 10	–	–	–	< 10	< 10
C[C@H](CN(C)C)Oc1cc(N2CCCS2(=O)=O)cc2ncnc(Nc3ccc4ncccc4c3F)c12 [Example 95, (R)-2-(5-((1-(dimethylamino)propan-2-yl)oxy)-4-((5-fluoroquinolin-6-yl)amino)quinazolin-7-yl)isothiazolidine 1,1-dioxide]	–	10.1 to 50	10.1 to 50	< 10	–	–	–
CCOc1cc2ncnc(Nc3ccc4ncccc4c3F)c2c(O[C@H](C)CN(C)C)n1 [Example 58, (R)-5-((1-(dimethylamino)propan-2-yl)oxy)-7-ethoxy-N-(5-fluoroquinolin-6-yl)pyrido[4,3-d]pyrimidin-4-amine]	–	> 50.1	> 50.1	10.1 to 50	–	–	–
CN1CCC[C@@H](Oc2cc(-c3cnn(C)c3)cc3ncnc(Nc4ccc5ncccc5c4F)c23)C1 [Example 36, (R)—N-(5-fluoroquinolin-6-yl)-7-(1-methyl-1H-pyrazol-4-yl)-5-((1-methylpiperidin-3-yl)oxy)quinazolin-4-amine]	–	10.1 to 50	10.1 to 50	< 10	–	–	–

Now from value to compound, other results behind:

IC50 [1] [nM]	IC50 [4] [nM]	IC50 [3] [nM]	IC50 [5] [nM]	Compound	progression-free survival (PFS) [2] [mo]	IC50 [3, 6] [nM]	IC50 [5, 6] [nM]
> 10000	–	–	–	[2H]c1c(-c2cc(O[C@H](C)CN(C)C)c3c(Nc4ccc5ncccc5c4OC([2H])([2H])[2H])ncnc3c2)cnn1C	–	–	–
–	> 50.1	> 50.1	10.1 to 50	C[C@H](CN(C)C)Oc1cc(N2CC3CCC(C2)O3)cc2ncnc(Nc3ccc4ncccc4c3F)c12 [Example 69, 7-(8-oxa-3-azabicyclo[3.2.1]octan-3-yl)-5-(((R)-1-(dimethylamino)propan-2-yl)oxy)-N-(5-fluoroquinolin-6-yl)quinazolin-4-amine]	–	–	–
–	≤ 10	< 10	< 10	C[C@@H](Oc1cc(-c2cnn(C)c2)cc2ncnc(Nc3ccc4ncccc4c3F)c12)C(CO)CO [Example 111, (R)-2-(1-((4-((5-fluoroquinolin-6-yl)amino)-7-(1-methyl-1H-pyrazol-4-yl)quinazolin-5-yl)oxy)ethyl)propane-1,3-diol]	–	–	–
–	≤ 10	< 10	< 10	C[C@@H](Oc1cc(N2CC[C@@H](C(C)(C)O)C2)cc2ncnc(Nc3ccc4ncccc4c3F)c12)C1COC1 [Example 63, 2—((R)-1-(4-((5-fluoroquinolin-6-yl)amino)-5-((R)-1-(oxetan-3-yl)ethoxy)quinazolin-7-yl)pyrrolidin-3-yl)propan-2-ol]	–	–	–
–	≤ 10	10.1 to 50	< 10	C[C@H](CN(C)C)Oc1cc(-c2cnn(C)c2)cc2ncnc(Nc3cnc4ncccc4c3)c12 [Example 40, (R)-5-((1-(dimethylamino)propan-2-yl)oxy)-7-(1-methyl-1H-pyrazol-4-yl)-N-(1,8-naphthyridin-3-yl)quinazolin-4-amine]	–	–	–
–	> 50.1	< 10	< 10	C[C@H](CN(C)C)Oc1cc(-c2cnn(C)c2)cc2ncnc(Nc3ccc4ncc(O)cc4c3F)c12 [Example 116, (R)-6-((5-((1-(dimethylamino)propan-2-yl)oxy)-7-(1-methyl-1H-pyrazol-4-yl)quinazolin-4-yl)amino)-5-fluoroquinolin-3-ol]	–	–	–
–	> 50.1	> 50.1	> 50.1	C[C@H](CN(C)C)Oc1cc(N2CC3CC(C2)N3)cc2ncnc(Nc3ccc4ncccc4c3F)c12 [Example 150, 7-(3,6-diazabicyclo[3.1.1]heptan-3-yl)-5-(((R)-1-(dimethylamino)propan-2-yl)oxy)-N-(5-fluoroquinolin-6-yl)quinazolin-4-amine]	–	–	–
–	10.1 to 50	10.1 to 50	10.1 to 50	CC(CN(C)C)Oc1cc(N2CC3CC(C2)O3)cc2ncnc(Nc3ccc4ncccc4c3)c12 (single isomer, unassigned) [Example 67, 7-(6-oxa-3-azabicyclo[3.1.1]heptan-3-yl)-5-(((R)-1-(dimethylamino)propan-2-yl)oxy)-N-(quinolin-6-yl)quinazolin-4-amine or 7-(6-oxa-3-azabicyclo[3.1.1]heptan-3-yl)-5-(((S)-1-(dimethylamino)propan-2-yl)oxy)-N-(quinolin-6-yl)quinazolin-4-amine]	–	–	–
